Ten molecules from patent US11492335B2, “Aryl or heteroaryl triazolone derivatives or salts thereof, or pharmaceutical compositions comprising the same” (YUHAN CORPORATION, priority 2018, dated 2022) can be followed below.

What all share (format): biochemical
Test [1] deals with T1, recombinant human MAO-A (monoamine oxidase-A) (Homo sapiens, UniProt P21397).
T1 construct: purchased Sigma-Aldrich
T1 sequence (P21397 1-527): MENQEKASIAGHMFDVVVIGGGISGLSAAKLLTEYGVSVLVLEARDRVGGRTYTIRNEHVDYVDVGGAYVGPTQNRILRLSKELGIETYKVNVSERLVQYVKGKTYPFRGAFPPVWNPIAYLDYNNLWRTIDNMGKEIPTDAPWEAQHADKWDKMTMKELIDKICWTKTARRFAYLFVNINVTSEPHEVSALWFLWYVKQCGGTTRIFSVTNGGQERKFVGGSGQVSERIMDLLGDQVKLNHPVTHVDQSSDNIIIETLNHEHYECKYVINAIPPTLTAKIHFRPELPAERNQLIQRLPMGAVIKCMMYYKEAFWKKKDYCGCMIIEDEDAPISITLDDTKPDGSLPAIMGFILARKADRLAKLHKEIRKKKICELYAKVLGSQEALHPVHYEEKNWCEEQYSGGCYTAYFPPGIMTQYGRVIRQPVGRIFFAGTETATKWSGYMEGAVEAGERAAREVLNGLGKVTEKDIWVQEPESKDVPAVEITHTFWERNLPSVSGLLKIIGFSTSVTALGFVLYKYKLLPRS
Kind of test: Activity on recombinant human MAO-A, Amplex Red method, 0.5 mM tyramine substrate. The note with it: read-out: Inhibitory Activity (IC50, nM) MAO-A. Put shortly: (§1)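 HRP-coupled Amplex Red H2O2 assay, 50 mM sodium phosphate pH 7.4; compounds (8-point 1:3 series, final DMSO <1%) preincubated with enzyme 30 min at 37° C, then 200 uM Amplex Red, 1 U/mL HRP and substrate (MAO-A 0.5 mM tyramine; MAO-B 1 mM benzylamine) added. Resorufin fluorescence (ex 544/em 590 nm) read over 1-2 h; IC50 from four-parameter logistic fit.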

For the next test, the target named is T2, recombinant human VAP-1 (Homo sapiens, UniProt Q16853).
T2 construct: purchased R&D systems
T2 sequence (Q16853 1-763): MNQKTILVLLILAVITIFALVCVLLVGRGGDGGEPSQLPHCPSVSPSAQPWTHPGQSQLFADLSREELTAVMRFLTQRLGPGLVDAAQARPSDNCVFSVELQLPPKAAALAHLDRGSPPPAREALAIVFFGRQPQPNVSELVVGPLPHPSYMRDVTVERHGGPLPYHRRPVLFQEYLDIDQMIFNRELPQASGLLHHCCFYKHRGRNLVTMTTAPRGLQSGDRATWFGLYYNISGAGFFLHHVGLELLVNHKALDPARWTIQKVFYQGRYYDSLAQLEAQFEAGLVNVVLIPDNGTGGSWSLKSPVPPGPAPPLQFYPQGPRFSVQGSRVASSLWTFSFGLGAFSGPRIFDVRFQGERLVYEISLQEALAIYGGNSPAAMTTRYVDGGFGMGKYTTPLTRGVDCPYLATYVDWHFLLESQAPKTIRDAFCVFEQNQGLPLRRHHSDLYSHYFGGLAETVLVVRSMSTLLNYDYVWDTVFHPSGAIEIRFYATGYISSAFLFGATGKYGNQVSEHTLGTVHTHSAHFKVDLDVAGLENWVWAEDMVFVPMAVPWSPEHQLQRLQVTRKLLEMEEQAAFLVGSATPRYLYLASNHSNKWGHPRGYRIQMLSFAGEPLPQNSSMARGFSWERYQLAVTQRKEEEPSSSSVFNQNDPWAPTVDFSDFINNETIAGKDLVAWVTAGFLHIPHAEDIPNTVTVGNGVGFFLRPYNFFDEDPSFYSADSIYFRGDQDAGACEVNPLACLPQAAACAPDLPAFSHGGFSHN
As to the kind of experiment: Activity on recombinant human VAP-1, Amplex Red HRP-coupled hydrogen peroxide assay, benzylamine substrate. The note with it: recombinant human VAP-1, benzylamine substrate, read-out: Inhibitory Activity (IC50, nM) human VAP-1. The procedure, abridged: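 8-point 1:3 dilutions, final DMSO <1%; 30 min enzyme preincubation, 37 °C, pH 7.4 phosphate. Start: 1 mM benzylamine + 200 uM Amplex Red + 1 U/mL HRP. Read ex544/em590 over 1-2 h; % rate decrease vs DMSO control, 4-parameter logistic IC50.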

The target in test [2] is T3, recombinant human DAO (diamine oxidase) (Homo sapiens, UniProt P19801).
T3 construct: purchased R&D systems
T3 sequence (P19801 20-751): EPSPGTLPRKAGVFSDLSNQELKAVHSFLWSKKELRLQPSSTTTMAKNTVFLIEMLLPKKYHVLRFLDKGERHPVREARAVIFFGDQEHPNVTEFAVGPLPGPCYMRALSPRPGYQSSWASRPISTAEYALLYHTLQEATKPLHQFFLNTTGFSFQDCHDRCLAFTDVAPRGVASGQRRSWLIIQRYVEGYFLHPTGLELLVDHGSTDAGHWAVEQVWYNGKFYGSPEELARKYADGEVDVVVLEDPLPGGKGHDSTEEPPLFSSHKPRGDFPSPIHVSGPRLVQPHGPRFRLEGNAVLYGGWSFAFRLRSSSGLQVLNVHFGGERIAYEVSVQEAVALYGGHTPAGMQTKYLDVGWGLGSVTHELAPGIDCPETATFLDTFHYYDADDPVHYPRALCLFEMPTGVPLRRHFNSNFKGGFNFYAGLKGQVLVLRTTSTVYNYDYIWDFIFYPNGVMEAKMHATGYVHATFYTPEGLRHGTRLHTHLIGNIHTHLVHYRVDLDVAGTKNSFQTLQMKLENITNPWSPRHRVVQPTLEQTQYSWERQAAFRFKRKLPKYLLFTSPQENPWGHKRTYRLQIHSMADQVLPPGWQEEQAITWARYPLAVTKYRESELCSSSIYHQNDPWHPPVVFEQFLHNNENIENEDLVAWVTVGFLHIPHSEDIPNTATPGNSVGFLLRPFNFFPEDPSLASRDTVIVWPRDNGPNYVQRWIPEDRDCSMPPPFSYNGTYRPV
As to the kind of experiment: Activity on recombinant human DAO, Amplex Red method, 1 mM putrescine substrate. The settings on record: recombinant human DAO; for IC50: read-out: Inhibitory Activity (IC50, nM) DAO. The procedure, abridged: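 Inhibition of recombinant human DAO (diamine oxidase, R&D systems) was assessed with the Amplex Red Hydrogen Peroxide Assay Kit. Hydrogen peroxide produced from 1 mM putrescine was detected through an HRP-coupled reaction that converts Amplex Red into fluorescent resorufin, read at 544 nm excitation and 590 nm emission. IC50 values came from four-parameter logistic fits in GraphPad Prism.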

For test [3], the target named is T4, recombinant human MAO-B (monoamine oxidase-B) (Homo sapiens, UniProt P27338).
T4 construct: purchased Sigma-Aldrich
T4 sequence (P27338 1-520): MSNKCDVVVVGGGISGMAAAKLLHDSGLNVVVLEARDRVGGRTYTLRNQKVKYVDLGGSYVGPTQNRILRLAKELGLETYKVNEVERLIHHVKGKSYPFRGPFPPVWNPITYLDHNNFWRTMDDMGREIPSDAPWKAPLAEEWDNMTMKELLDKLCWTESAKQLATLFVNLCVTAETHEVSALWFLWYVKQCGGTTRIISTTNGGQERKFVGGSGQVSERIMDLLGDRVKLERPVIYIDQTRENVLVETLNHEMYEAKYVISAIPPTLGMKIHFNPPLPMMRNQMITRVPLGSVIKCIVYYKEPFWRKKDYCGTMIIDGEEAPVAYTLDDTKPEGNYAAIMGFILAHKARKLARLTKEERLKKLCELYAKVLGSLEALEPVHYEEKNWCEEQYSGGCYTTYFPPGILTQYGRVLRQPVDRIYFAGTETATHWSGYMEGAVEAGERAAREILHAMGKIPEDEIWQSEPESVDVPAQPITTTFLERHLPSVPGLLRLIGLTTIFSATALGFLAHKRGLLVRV
As to the kind of experiment: Activity on recombinant human MAO-B, Amplex Red method, 1 mM benzylamine substrate. The note with it: read-out: Inhibitory Activity (IC50, nM) MAO-B. Put shortly:
as §1

Where [4] appears, read: 1 mM putrescine, * = between 10 and 100 nM, ** = between 300 and 1000 nM.

SMILES strings stand for the structures. Where a name gives a salt, the structure may show the parent alone. Read-outs that look alike come from different tables or passages of the source.

On to `NC/C(=C\F)Cn1ncn(-c2ccc(-c3ccc4nonc4c3)cc2F)c1=O` [Example 46, 2-[(2E)-2-(aminomethyl)-3-fluoroprop-2-en-1-yl]-4-[4-(2,1,3-benzooxadiazol-5-yl)-2-fluorophenyl]-2,4-dihydro-3H-1,2,4-triazol-3-one hydrochloride], for which the IC50 in test [1] (0.5 mM tyramine) was 120 nM; at recombinant human VAP-1 (30 min preincubation at 37° C.) it was 0.32 nM; in test [2] (setting [4]) it was 0.76 nM; in test [3] (1 mM benzylamine) it was less than 10 nM.

For the molecule `Cc1cc(-n2cnn(C/C(=C/F)CN)c2=O)ncc1-c1ccc2c(c1)OCO2` [Example 159, 2-[(2E)-2-(aminomethyl)-3-fluoroprop-2-en-1-yl]-4-[5-(1,3-benzodioxol-5-yl)-4-methylpyridin-2-yl]-2,4-dihydro-3H-1,2,4-triazol-3-one], the half-maximal inhibitory concentration (IC50) in test [1] (0.5 mM tyramine substrate) stood at 1510 nM; at recombinant human VAP-1, 0.21 nM; in test [2] (1 mM putrescine substrate), 1.8 nM; in test [3] (1 mM benzylamine substrate), 74 nM.

For `CC(C)c1nc(-c2ccc(-c3cccc(-n4cnn(C/C(=C/F)CN)c4=O)n3)cc2)no1` [Example 180, 2-[(2E)-2-(aminomethyl)-3-fluoroprop-2-en-1-yl]-4-(6-{4-[5-(propan-2-yl)-1,2,4-oxadiazol-3-yl]phenyl}pyridin-2-yl)-2,4-dihydro-3H-1,2,4-triazol-3-one], the 50% inhibitory concentration (IC50) in test [1] (0.5 mM tyramine substrate) came out at 120000 nM; on recombinant human VAP-1, 2.8 nM; in test [2] (1 mM putrescine substrate), 1.4 nM; in test [3] (1 mM benzylamine substrate), 180 nM.

As for `CN1CNc2cc(/C=C/c3cccc(-n4cnn(C/C(=C/F)CN)c4=O)n3)cnc21` [Example 240, 2-[(E)-2-(aminomethyl)-3-fluoro-allyl]-4-[6-[(E)-2-(3-methyl-1,2-dihydroimidazo[4,5-b]pyridin-6-yl)vinyl]-2-pyridyl]-1,2,4-triazol-3-one hydrochloride], the half-inhibitory concentration (IC50) in test [1] (0.5 mM tyramine substrate) was more than 100000 nM; on recombinant human VAP-1, 1 nM; in test [2] (1 mM putrescine substrate) it was 4 nM; in test [3] (1 mM benzylamine substrate), more than 10000 nM.

Consider `CC(=O)N1CCN(c2ccc(-c3cccc(-n4cnn(C/C(=C/F)CN)c4=O)c3)cc2)CC1` [Example 72, 4-[4′-(4-acetylpiperazine-1-yl)biphenyl-3-yl]-2-[(2E)-2-(aminomethyl)-3-fluoroprop-2-en-1-yl]-2,4-dihydro-3H-1,2,4-triazol-3-one hydrochloride], for which the 50% inhibitory concentration (IC50) in test [1] (0.5 mM tyramine) amounted to 4890 nM; on recombinant human VAP-1 (30 min preincubation at 37° C.) it was 1.1 nM; in test [2] (setting [4]), 59 nM; in test [3] (1 mM benzylamine), 1460 nM.

As for `CC(=O)Nc1ccc(-c2cccc(-n3cnn(C/C(=C/F)CN)c3=O)c2C)cc1` [Example 107, N-(3′-{1-[(2E)-2-(aminomethyl)-3-fluoroprop-2-en-1-yl]-5-oxo-1,5-dihydro-4H-1,2,4-triazol-4-yl}-2′-methylbiphenyl-4-yl)acetamide], the IC50 was more than 100000 nM in test [1] (0.5 mM tyramine), 2.8 nM on recombinant human VAP-1 (30 min preincubation at 37° C.) and more than 10000 nM in test [3] (1 mM benzylamine). Also, the “Inhibitory Activity (IC50, nM) DAO” value in test [2] (setting [4]) is “no inhibitory”.

With `Cc1cc(-c2ccc3c(c2)NC(=O)CO3)cnc1-n1cnn(C/C(=C/F)CN)c1=O` [Example 155, 6-(6-{1-[(2E)-2-(aminomethyl)-3-fluoroprop-2-en-1-yl]-5-oxo-1,5-dihydro-4H-1,2,4-triazol-4-yl}-5-methylpyridin-3-yl)-2H-1,4-benzoxazin-3 (4H)-one hydrochloride], the IC50 was 16000 nM in test [1] (0.5 mM tyramine substrate), 0.3 nM at recombinant human VAP-1, 87 nM in test [2] (1 mM putrescine substrate) and 4400 nM in test [3] (1 mM benzylamine substrate).

Turning to `Cc1cc(-c2cccc(-n3cnn(C/C(=C/F)CN)c3=O)c2)cc2c1NC(=O)CC2` [Example 102, 6-(3-{1-[(2E)-2-(aminomethyl)-3-fluoroprop-2-en-1-yl]-5-oxo-1,5-dihydro-4H-1,2,4-triazol-4-yl}phenyl)-8-methyl-3,4-dihydroquinolin-2(1H)-one hydrochloride], the IC50 in test [1] (0.5 mM tyramine) was more than 100000 nM; at recombinant human VAP-1 (30 min preincubation at 37° C.), 0.2 nM; in test [2] (setting [4]) it was 28 nM; in test [3] (1 mM benzylamine) it was more than 10000 nM.

For the molecule `NC/C(=C\F)Cn1ncn(-c2cnc(-c3ccc(-c4nc[nH]n4)cc3)cn2)c1=O` [Example 218, 2-[(2E)-2-(aminomethyl)-3-fluoroprop-2-en-1-yl]-4-{5-[4-(1H-1,2,4-triazol-3-yl)phenyl]pyrazin-2-yl}-2,4-dihydro-3H-1,2,4-triazol-3-one], the IC50 in test [1] (0.5 mM tyramine substrate) is more than 100000 nM; on recombinant human VAP-1 it was 1.9 nM; in test [2] (1 mM putrescine substrate) it was less than 100 nM; in test [3] (1 mM benzylamine substrate), 49 nM.

Regarding `NC/C(=C\F)Cn1ncn(-c2cccc(-c3cccc4[nH]ccc34)c2)c1=O` [Example 98, 2-[(2E)-2-(aminomethyl)-3-fluoroprop-2-en-1-yl]-4-[3-(1H-indol-4-yl)phenyl]-2,4-dihydro-3H-1,2,4-triazol-3-one hydrochloride], the IC50 in test [1] (0.5 mM tyramine) was found to be 76400 nM; at recombinant human VAP-1 (30 min preincubation at 37° C.), 4.7 nM; in test [2] (setting [4]), 68 nM; in test [3] (1 mM benzylamine) it was 9320 nM.
